Laboratory results as given in US20220401514A1, “ANTIMICROBIAL, BACTERIOPHAGE-DERIVED POLYPEPTIDES AND THEIR USE AGAINST GRAM-NEGATIVE AND ACID-FAST BACTERIA” (CONTRAFECT CORPORATION, priority 2019, published 2022).
≈ marks a conversion by molar mass, not a printed value. Like-named read-outs stand apart in the source and are kept apart here.

What was measured:
M. scrofulaceum = assay: 45 hr MIC against M. scrofulaceum (NTM); format: cell-based, Mycobacterium scrofulaceum; conditions: Mycobacterium scrofulaceum, ATCC19981, 45 h, read-out: 45 hr MIC; M. scrofulaceum Prissick and Masson ATCC 19981
M. intracellulare = assay: 45 hr MIC against M. intracellulare (NTM); format: cell-based, Mycobacterium intracellulare; conditions: Mycobacterium intracellulare, ATCC13950, 45 h, read-out: 45 hr MIC; M. intracellulare (Cuttino and McCabe) Runyon ATCC 13950
Pseudomonas aeruginosa = assay: microbe, parasite or virus in culture; format: cell-based; conditions: Pseudomonas aeruginosa, ATCC27853; P. aeruginosa (ATCC 27853); control agents of Table 8; read-out: MIC (in brackets beside MBEC)
Escherichia coli = assay: microbe, parasite or virus in culture; format: cell-based; conditions: Escherichia coli, control agents of Table 8, read-out: MIC (in brackets beside MBEC)
In short: (§1)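 Medium: CAA with added human serum. Peptides tested for minimal inhibitory concentration against each strain.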

Enterobacter cloacae = assay: microbe, parasite or virus in culture; format: cell-based; conditions: Enterobacter cloacae, CCUG63317; E. cloacae (CCUG 63317); control agents of Table 8; read-out: MIC (in brackets beside MBEC)
In short: as §1

[1] = tested on: M. kansasii Hauduroy ATCC 12478; assay: 45 hr MIC against M. kansasii (NTM), Mueller Hinton broth; format: cell-based, Mycobacterium kansasii; conditions: Mycobacterium kansasii, ATCC12478, 45 h, read-out: 45 hr MIC
M. avium = assay: 45 hr MIC against M. avium (NTM); format: cell-based, Mycobacterium avium; conditions: Mycobacterium avium, ATCC700898, 45 h, read-out: 45 hr MIC; M. avium Chester ATCC 700898
Acinetobacter baumannii = assay: microbe, parasite or virus in culture; format: cell-based; conditions: Acinetobacter baumannii, ATCCBAA747; A. baumanni (ATCC BAA-747); control agents of Table 8; read-out: MIC (in brackets beside MBEC)
Klebsiella pneumoniae = assay: microbe, parasite or virus in culture; format: cell-based; conditions: Klebsiella pneumoniae, read-out: MIC (in brackets beside MBEC)

Compound: NC[C@H]1O[C@H](O[C@H]2[C@H](O)[C@@H](O[C@H]3O[C@H](CO)[C@@H](O)[C@H](N)[C@H]3O)[C@H](N)C[C@@H]2N)[C@H](N)C[C@@H]1O [tobramycin, reference compound]
- MIC (M. scrofulaceum): 0.25 µg/mL (≈ 0.535 µM)
- MIC (M. intracellulare): 0.25 µg/mL (≈ 0.535 µM)
- MIC (Pseudomonas aeruginosa): < 0.5 µg/mL
- MIC (Escherichia coli; ATCC25922, E. coli (ATCC 25922)): < 0.5 µg/mL
- MIC (Escherichia coli; ATCC35329, E. coli (ATCC 35329)): < 0.5 µg/mL
- MIC (Escherichia coli; E. coli (EC2)): < 0.5 µg/mL
- MIC (Enterobacter cloacae): < 0.5 µg/mL
- MIC [1]: 16 µg/mL (≈ 34.2 µM)
- MIC (M. avium): 0.125 µg/mL (≈ 0.267 µM)
- MIC (Acinetobacter baumannii): < 0.5 µg/mL
- MIC (Klebsiella pneumoniae; ATCC700603, K. pneumoniae (ATCC 700603), control agents of Table 8): < 0.5 µg/mL
- MIC (Klebsiella pneumoniae): < 0.5 µg/mL
